Experimental findings from ChEMBL document CHEMBL1201862, “PubChem BioAssay data set” (2004) are described below.

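Briefly, cells in 96-well plates were exposed to five compound concentrations for 48 h, and endpoints were estimated by linear interpolation. GI50 = concentration required for 50% inhibition of growth.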 Activity calls are given as the source filed them. Cut-off read from the data, not from the text of the source: active = GI50 up to about 1.1 µM and inactive = higher. Where only a bound is given, the exact number is not on record here.

Test systems include CAKI-1; IGROV-1; LOX IMVI; DU-145; HCT-116; EKVX; T47D; SN12C; UO-31; MCF7; 786-0; MDA-N; COLO 205; UACC-257; SNB-19; OVCAR-4; A498; CCRF-CEM; HCT-15; SR.
What all share (test): NCI tumour cell line growth inhibition, 48 h

`Nc1ccccc1C(=O)NNC(=O)c1ccccc1N`: the GI50 in the test on CAKI-1, in the test with IGROV-1, in the test on LOX IMVI, in the test with DU-145, with HCT-116 and in the test with EKVX was > 100 µM (inactive) in each case. The GI50 in the test with T47D, in the test on SN12C, in the test with UO-31, in the test with MCF7, with 786-0 and with MDA-N was > 100 µM (inactive) in each case. Besides, the GI50 with COLO 205, in the test with UACC-257, in the test on SNB-19, in the test with OVCAR-4, in the test on A498 and in the test on CCRF-CEM was > 100 µM (inactive) in each case. In addition, the GI50 in the test with HCT-15 was > 100 µM.

On to `CN(C)Cc1nsc(N(C)C)n1`, for which the GI50 in the test on CAKI-1, in the test with IGROV-1, with LOX IMVI, with DU-145, with HCT-116 and in the test on EKVX was > 100 µM (inactive) in each case. Besides, the GI50 in the test on T47D, in the test with SN12C, with UO-31, in the test on MCF7, with 786-0 and in the test on MDA-N was > 100 µM (inactive) each time. The GI50 is > 100 µM (inactive) in the test on COLO 205; > 100 µM (inactive) in the test with UACC-257; > 100 µM (inactive) in the test with SNB-19; > 100 µM (inactive) in the test on OVCAR-4; > 100 µM (inactive) in the test with A498; > 100 µM in the test on HCT-15.

`Cc1ccc(S[C@@H](C)[C@@](O)(CF)CN(Cc2ccccc2)C(=O)C(F)(F)F)cc1`: the GI50 was 25.5 µM (inactive) in the test on CAKI-1; > 100 µM (inactive) in the test with IGROV-1; 40.3 µM (inactive) in the test on LOX IMVI; 26.9 µM (inactive) in the test on DU-145; 11.4 µM (inactive) with HCT-116; 21.8 µM (inactive) in the test with EKVX. For the same molecule, the GI50 is 28.8 µM (inactive) with T47D; 18.4 µM (inactive) in the test with SN12C; 16.6 µM (inactive) with UO-31; 20.8 µM (inactive) in the test on MCF7; 16.7 µM (inactive) with 786-0; 22.8 µM (inactive) in the test on MDA-N. For the same molecule, the GI50 in the test with UACC-257 is 20.9 µM (inactive); in the test with SNB-19, 23.4 µM (inactive); with OVCAR-4, 14.9 µM (inactive); with A498 it was 11.5 µM (inactive); in the test with CCRF-CEM, 11 µM (inactive); with HCT-15 it was 17.1 µM.

As for `CCOC(=O)c1c[nH]c2cc3c(cc2c1=O)CCS3`, the GI50 is > 100 µM (inactive) in the test on CAKI-1; > 100 µM (inactive) in the test with IGROV-1; > 100 µM (inactive) in the test with LOX IMVI; > 100 µM (inactive) in the test with DU-145; 37.9 µM (inactive) in the test with HCT-116; > 100 µM (inactive) with EKVX. The GI50 in the test with T47D was > 100 µM (inactive); in the test on SN12C, > 100 µM (inactive); with UO-31 it was 83.9 µM (inactive); with MCF7 it was > 100 µM (inactive); with 786-0, > 100 µM (inactive); in the test on MDA-N, > 100 µM (inactive). For the same molecule, the GI50 in the test with COLO 205, in the test on UACC-257, in the test with SNB-19, in the test with OVCAR-4, in the test with A498 and in the test with CCRF-CEM was > 100 µM (inactive) throughout. In the test on HCT-15, the GI50 is > 100 µM.

Consider `CCCc1c(OC)c(=O)c2c(OC)cc(OC)c3c4c(OC)cc(OC)c5c(=O)c(OC)c(CCC)c(c1c23)c54`, for which the GI50 in the test on CAKI-1 was 14.6 µM (inactive); in the test with IGROV-1, 14.8 µM (inactive); in the test with LOX IMVI it was 7.4 µM (inactive); with DU-145, 12.2 µM (inactive); in the test with HCT-116, 13.8 µM (inactive); in the test with EKVX, 11.8 µM (inactive). Also, the GI50 was 4.07 µM (inactive) in the test with T47D; 18.6 µM (inactive) in the test with SN12C; 15.5 µM (inactive) in the test with UO-31; 17.1 µM (inactive) in the test on MCF7; 13.1 µM (inactive) in the test on 786-0; 15.2 µM (inactive) in the test on MDA-N. For the same molecule, the GI50 is 8.47 µM (inactive) in the test with COLO 205; 20.7 µM (inactive) in the test on UACC-257; 19.8 µM (inactive) with SNB-19; 13.3 µM (inactive) with OVCAR-4; 19.1 µM (inactive) in the test on A498; 12.8 µM with HCT-15.

For the molecule `O=C1CCCCC1CN1CCCCC1` (stereo not drawn), the GI50 with CAKI-1, in the test on IGROV-1, with LOX IMVI, in the test with DU-145, in the test with HCT-116 and with EKVX was > 100 µM (inactive) in each case. In addition, the GI50 in the test with SN12C is > 100 µM (inactive); in the test on UO-31, > 100 µM (inactive); in the test with MCF7 it was > 100 µM (inactive); in the test with SR, 8.89 µM (inactive); with 786-0 it was > 100 µM (inactive); in the test on MDA-N, > 100 µM (inactive). Besides, the GI50 was > 100 µM (inactive) with COLO 205; > 100 µM (inactive) with SNB-19; > 100 µM (inactive) in the test with OVCAR-4; > 100 µM (inactive) in the test on A498; > 100 µM (inactive) in the test on CCRF-CEM; > 100 µM in the test with HCT-15.

On to `CC(=O)CC(O)(C(F)(F)Cl)C(F)(Cl)Cl` (stereo not drawn), for which the GI50 with CAKI-1, in the test with IGROV-1, in the test on LOX IMVI, with DU-145, in the test with HCT-116 and in the test on EKVX was > 10 µM (inactive) each time. For the same molecule, the GI50 with T47D, in the test with SN12C, in the test with UO-31, with MCF7, in the test on 786-0 and with MDA-N was > 10 µM (inactive) in each case. Also, the GI50 in the test on COLO 205, with UACC-257, with SNB-19, in the test with OVCAR-4, in the test on A498 and in the test on CCRF-CEM was > 10 µM (inactive) in each case. Besides, the GI50 in the test with HCT-15 is > 10 µM.

As to `CCC1(CC)SCc2nc3ccccc3n21`, the GI50 in the test with CAKI-1 was 35.2 µM (inactive); in the test on IGROV-1, 34.2 µM (inactive); in the test with LOX IMVI it was 34.8 µM (inactive); in the test on DU-145 it was 50 µM (inactive); in the test with HCT-116 it was 23.9 µM (inactive); with EKVX it was 27.3 µM (inactive). For the same molecule, the GI50 in the test on T47D was 49.7 µM (inactive); with SN12C it was 49.8 µM (inactive); in the test with UO-31 it was 35.4 µM (inactive); with MCF7 it was 30.2 µM (inactive); with 786-0, 66.4 µM (inactive); in the test on MDA-N, 34.9 µM (inactive). Moreover, the GI50 in the test with COLO 205 is 19.8 µM (inactive); in the test with UACC-257, 27.4 µM (inactive); in the test with SNB-19 it was 53.2 µM (inactive); with OVCAR-4 it was 20.6 µM (inactive); in the test with A498, 40.1 µM (inactive); in the test on CCRF-CEM it was 33.4 µM (inactive). In the test on HCT-15, this molecule gave a GI50 of 36.2 µM.

With `Cc1cccc(N/C(=C(/C(Cl)=C(Cl)Cl)[N+](=O)[O-])n2nnc3ccccc32)c1`, the GI50 in the test on CAKI-1 is 17.5 µM (inactive); in the test on HCT-116, 18.9 µM (inactive); in the test on EKVX, 18.6 µM (inactive); in the test with T47D, 22.1 µM (inactive); in the test on SN12C, 15.5 µM (inactive); in the test on UO-31, 16.5 µM (inactive). Moreover, the GI50 in the test on MCF7 was 21.6 µM (inactive); with 786-0 it was 19.5 µM (inactive); in the test with MDA-N it was 23.5 µM (inactive); in the test with COLO 205, 17.1 µM (inactive); in the test on UACC-257 it was 22 µM (inactive); in the test on SNB-19, 18.2 µM (inactive). Also, the GI50 in the test on OVCAR-4 was 19.5 µM (inactive); with A498 it was 12.5 µM (inactive); in the test on CCRF-CEM it was 2.96 µM (inactive); in the test with HCT-15 it was 18.4 µM.

`O=C(O)CC/C(=N\Nc1nsc2ccccc12)c1ccc(Cl)cc1`: the GI50 with CAKI-1 was 23.3 µM (inactive); in the test with IGROV-1, 30.1 µM (inactive); in the test on LOX IMVI it was 12.2 µM (inactive); in the test on DU-145, 30.3 µM (inactive); in the test on HCT-116 it was 17.9 µM (inactive); in the test with EKVX it was 69.5 µM (inactive). Besides, the GI50 was 31.2 µM (inactive) in the test with T47D; 26 µM (inactive) in the test on SN12C; 21.1 µM (inactive) with UO-31; 5.75 µM (inactive) in the test with MCF7; 17.8 µM (inactive) with 786-0; 31.3 µM (inactive) in the test with MDA-N. Moreover, the GI50 was 43.4 µM (inactive) in the test on COLO 205; 25.5 µM (inactive) with UACC-257; > 64 µM (inactive) with SNB-19; 20.8 µM (inactive) in the test on OVCAR-4; 37 µM (inactive) in the test on A498; 6.84 µM (inactive) in the test on CCRF-CEM. In the test with HCT-15, the GI50 was 21.1 µM.

Take `CC1(C)C2CCC1(C)C(N/C(Sc1ccccc1)=C(/C(Cl)=C(Cl)Cl)[N+](=O)[O-])C2` (stereo not drawn): the GI50 is 15.2 µM (inactive) in the test with CAKI-1; 17.7 µM (inactive) with DU-145; 15.5 µM (inactive) with HCT-116; 13.4 µM (inactive) with EKVX; 13.5 µM (inactive) with T47D; 13.9 µM (inactive) with SN12C. Also, the GI50 is 13.2 µM (inactive) in the test on UO-31; 11.2 µM (inactive) in the test with MCF7; 14 µM (inactive) in the test with 786-0; 10.6 µM (inactive) in the test with MDA-N; 14.3 µM (inactive) in the test with UACC-257; 18.1 µM (inactive) with SNB-19. Further, the GI50 with OVCAR-4 was 13.4 µM (inactive); in the test with A498, 15 µM (inactive); in the test with HCT-15, 10.4 µM.
